Experimental data published in US20260248702A1, “Composition Comprising a UV-Filter Stabilizer” (Symrise AG, priority 2022, published 2026).
Blank lines part the entries; values can stand above or below the molecule they belong to.

Experiment: Photostability test: E1%/cm absorbance measurement before and after irradiation with 5 MED
Assay type: physicochemical
Conditions: for Photostability result in words / Lost (%) after irradiation with 5 MED (1,250 J/m^2) / E max (nm): E1%/cm solution; for Lost (%) after irradiation with 5 MED (1,250 J/m^2): absorbance loss at E max; for E max (nm): wavelength of maximum absorbance; for loss of the photo-unstable UV-filter (absorbance loss), UV-filter alone versus in combination with the MAA compound: after irradiation with 5 MED, no wavelength given in the sentence; for photo-stabilizing effect in words: summary statements on the photostability test
Experimental: The photostability of a UV-filter can be determined in vitro using absorbance measures, by which the loss in absorbance of the UV-filter before and after irradiation, for example with 5 MED, is measured. The loss in absorbance of the UV-filter goes along with the degradation of the UV-filter by one or more photochemical reactions, including photofragmentation, isomerization, tautomerization, photoaddition and the like. UV-filters with an absorbance loss≥20% after irradiation are classified as photo-unstable. Alternatively, the photostability of a UV-filter can be determined by analytical measures, that is by quantitative determination of the amount (i.e. concentration) by which the filter is degraded.
UV-filters are usually tested for photostability to ensure that no degradation of the UV-filter itself or in combination with other substances takes place.
The UV-filter stabilizing properties of mycosporine-like amino acid compounds were explored by comparing the behaviour of UV-filter alone relative to UV-filters in combination with a certain mycosporine-like amino acid compound.
In the present case single photo-unstable UV-filters as well as formulations of photo-unstable filters with certain mycosporine-like amino acid compounds were subjected to photostability testing, described in detail below, to determine the retention of absorption of UVA and UVB radiation (full spectrum analysis) after exposing the sample to 5 MED (minimal erythema) dose (1 MED=250 J/m^2).
Sample preparation: The substance or the formulation to be tested was dissolved in a suitable solvent. For this purpose, a certain amount of the substance or formulation was transferred by means of an analytical balance/pipette into a graduated flask and filled with the selected solvent. The filling up to the calibration mark of the graduated flask was carried out only after complete dissolution of the substance and temperature control at 20° C.
Preparation of solution E 1%/cm: 100 mg of the substance or formulation to be tested were weighed into a graduated flask and filled up to 100 ml with the corresponding solvent. A clear solution was obtained. If necessary, an ultrasonic bath can be used to improve solubility. For further dilution the sample was adjusted to a temperature of 20° C. 1 ml of the dissolved solution was added into a second graduated 100 ml flask, filled up to 100 ml at a temperature of 20° C. The final concentration of the thus obtained solution was 0.001%. (E1%/cm). This solution was used for absorbance measurement and irradiation. Said solution was transferred to a 10 mm quartz cuvette with closure.
Irradiation: Irradiation of the sample was performed for […] with 700 W/m^2 emitted by an Atlas SUN Test CPS. This corresponds to an amount of energy of 5 MED (minimal erythema) dose (=1,250 J/m^2). At the same time, the temperature of the devise was adjusted to max 30° C. in order to avoid strong heating of the sample.
Measurement: The absorbance measurement of the sample in the quartz cuvette with closure (10 mm) was carried out in a wavelength range of 200 nm to 700 nm with a Lambda 25 UV spectrometer. A blank absorbance test was carried out with the corresponding solvent for preparing the samples as described above. The absorbance measurement of the samples was carried out before (pre-irradiation) and after irradiation emitted by a Atlas SUN Test CPS (see above).
The amplitude of the absorbance curve reflects the degree of protection. The higher the amplitude of the curve, the greater the absorbance and the more protection provided at that wavelength. Within the UVB portion of the spectrum (290 nm to 320 nm) this amplitude correlates with the SPF. The greater the breadth of the curve, the more protection provided against longer wave UV ration. In other words, the greater the breadth of the curve, the broader the spectrum of sun protection provided. […]

[1] = after irradiation with 5 MED (1,250 J/m^2)

Absorbance loss at 335 nm (E1%/cm solution (0.001%), after irradiation with 5 MED (1,250 J/m^2), read at 335 nm): 15.03% | Photostability result in words [1]: A photostable molecule
Structure (SMILES): CC1(C)CC(NCC(=O)O)=C/C(=N/c2ccc(S(=O)(=O)O)cc2)C1 [MAA-28, 2-[(5,5-dimethyl-3-(4-sulfo-phenyl)imino-cyclohexen-1-yl)amino]acetic acid]

Photostability result in words [1]: Very photostable molecule
Structure (SMILES): CC1(C)CC(NCC(=O)O)=C/C(=N/c2ccccc2)C1 [MAA-20, 2-[(5,5-dimethyl-3-phenyl-imino-cyclohexen-1-yl)-amino]acetic acid]

Absorbance loss at 321 nm (E1%/cm solution (0.001%), after irradiation with 5 MED (1,250 J/m^2), read at 321 nm): 0.53% | Photostability result in words [1]: Very photostable molecule | photo-stabilizing effect in words: pronounced photo-stabilizing effect
Structure (SMILES): CCOC(=O)CNC1=C/C(=N/c2ccccc2)CC(C)(C)C1 [MAA-1, ethyl 2-[[5,5-dimethyl-3-phen-ylimino-cyclohexen-1-yl]amino] acetate]

Absorbance loss at 364 nm (E1%/cm solution (0.001%), after irradiation with 5 MED (1,250 J/m^2), read at 364 nm): 5.13% | Photostability result in words [1]: Very photostable molecule | photo-stabilizing effect in words: pronounced photo-stabilizing effect
Structure (SMILES): COc1ccc(/N=C2\CC(C)(C)CC3=C2SCC(C(=O)O)N3)cc1OC (stereo not drawn) [MAA-13, 8-((3,4-dimethoyxphenyl)-imino)-6,6-dimethyl-3,4,5,6,7,8-hexahydro-2-H-benzol[b][1,4]thiazine-3-car-boxylic acid]

More lines, now with the values behind:

Structure (SMILES): COc1ccc(C(=O)CC(=O)c2ccc(C(C)(C)C)cc2)cc1 [Butyl Methoxydibenzoylmethane, Butyl-Methoxydibenzoylmethane or Avobenzone]
Absorbance loss at 358 nm (E1%/cm solution (0.001%), after irradiation with 5 MED (1,250 J/m^2), read at 358 nm): 7.05% | Photostability result in words [1]: photostable in this kind of medium | Lost (%) after irradiation with 5 MED (1,250 J/m^2): 7.05% | E max (nm): 358 nm | loss of the photo-unstable UV-filter (absorbance loss), UV-filter alone versus in combination with the MAA compound: 7.05%

Structure (SMILES): COc1ccc(/C=C/C(=O)OCCC(C)C)cc1 [Isoamyl p-Methoxycinnamate, Isoamyl-p-Methoxycinnamate]
Absorbance loss at 310 nm (E1%/cm solution (0.001%), after irradiation with 5 MED (1,250 J/m^2), read at 310 nm): 30.5% | Photostability result in words [1]: Not photostable | Lost (%) after irradiation with 5 MED (1,250 J/m^2): 30.50% | E max (nm): 310 nm | loss of the photo-unstable UV-filter (absorbance loss), UV-filter alone versus in combination with the MAA compound: 30.50% | Critical Wavelength (nm) (wavelength at which 90% of the total area under the UV protection curve (280-400 nm) is reached): 324 nm

Structure (SMILES): CCCCC(CC)COC(=O)C=Cc1ccc(OC)cc1 (stereo not drawn) [Ethylhexyl Methoxycinnamate, Ethylhexyl-Methoxycinnamate]
Photostability result in words [1]: Not photostable
